Key:
[1] = biological target: mu-opioid receptor (MOR); conditions: N-substituted 5-phenylmorphans; read-out: affinity at MOR Ki; cited from earlier work
[2] = system: cloned human mu-opioid receptor; conditions: [35S]GTPγS functional assay; cited from earlier work
[3] = biological target: T1, μ-opioid receptor (MOR) (Rattus norvegicus, UniProt P33535); assay: Opioid receptor binding, MOR ([3H]DAMGO), rat brain homogenate; conditions: [3H]DAMGO, whole rat brains excluding cerebellum; read-out: MOR Binding (Ki ± SEM)
T1 construct: All assay tubes contained 100 μL homogenate suspension; from tissue; host or cells: whole rat brain excluding cerebellum, membrane homogenate
T1 sequence (P33535 whole entry): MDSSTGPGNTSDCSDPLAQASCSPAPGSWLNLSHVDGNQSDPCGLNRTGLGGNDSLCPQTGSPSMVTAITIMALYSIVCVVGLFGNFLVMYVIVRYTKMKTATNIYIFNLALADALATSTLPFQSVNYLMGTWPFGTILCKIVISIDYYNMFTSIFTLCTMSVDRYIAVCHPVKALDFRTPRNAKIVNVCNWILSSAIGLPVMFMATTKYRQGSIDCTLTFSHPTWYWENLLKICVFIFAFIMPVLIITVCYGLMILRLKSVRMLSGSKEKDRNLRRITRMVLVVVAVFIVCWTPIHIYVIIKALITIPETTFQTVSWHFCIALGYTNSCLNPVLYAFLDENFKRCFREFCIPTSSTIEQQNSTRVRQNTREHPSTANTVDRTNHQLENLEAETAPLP

[4] = biological target: T2, δ-opioid receptor (DOR) (Rattus norvegicus, UniProt P33533); assay: Opioid receptor binding, DOR ([3H]DADLE), rat brain homogenate; conditions: for Ki: [3H]DADLE, whole rat brains excluding cerebellum, read-out: DOR Binding (Ki ± SEM); for fold lower affinity at DOR than at MOR: from Ki of Table 1
T2 construct: All assay tubes contained 100 μL homogenate suspension; from tissue; host or cells: whole rat brain excluding cerebellum, membrane homogenate
T2 sequence (P33533 whole entry): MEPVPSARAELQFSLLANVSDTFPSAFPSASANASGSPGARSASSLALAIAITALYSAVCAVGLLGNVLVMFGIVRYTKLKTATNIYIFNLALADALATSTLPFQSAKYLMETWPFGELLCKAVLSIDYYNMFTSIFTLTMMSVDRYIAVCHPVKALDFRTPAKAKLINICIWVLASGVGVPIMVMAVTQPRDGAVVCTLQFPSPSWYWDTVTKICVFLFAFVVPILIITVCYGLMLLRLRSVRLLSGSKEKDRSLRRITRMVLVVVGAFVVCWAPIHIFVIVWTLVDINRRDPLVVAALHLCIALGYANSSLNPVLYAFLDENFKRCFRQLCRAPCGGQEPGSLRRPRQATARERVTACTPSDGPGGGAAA

[5] = biological target: T3, κ-opioid receptor (KOR) (Rattus norvegicus, UniProt P34975); assay: Opioid receptor binding, KOR ([3H]U69,593), rat brain homogenate; conditions: for Ki: [3H]U69,593, whole rat brains excluding cerebellum, read-out: KOR Binding (Ki ± SEM); for fold lower affinity at KOR than at MOR: from Ki of Table 1
T3 construct: All assay tubes contained 100 μL homogenate suspension; from tissue; host or cells: whole rat brain excluding cerebellum, membrane homogenate
T3 sequence (P34975 whole entry): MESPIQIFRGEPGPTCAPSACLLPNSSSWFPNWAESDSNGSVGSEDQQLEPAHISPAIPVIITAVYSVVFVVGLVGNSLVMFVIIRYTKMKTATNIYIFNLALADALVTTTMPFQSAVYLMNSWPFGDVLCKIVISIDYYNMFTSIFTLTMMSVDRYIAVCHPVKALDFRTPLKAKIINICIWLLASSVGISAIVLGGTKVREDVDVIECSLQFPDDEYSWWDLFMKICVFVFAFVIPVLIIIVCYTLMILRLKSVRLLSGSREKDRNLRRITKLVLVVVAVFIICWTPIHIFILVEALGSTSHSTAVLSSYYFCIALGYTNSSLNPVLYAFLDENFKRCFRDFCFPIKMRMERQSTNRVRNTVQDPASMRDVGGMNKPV

[6] = biological target: T4, CYP2D6 (Homo sapiens, UniProt P10635); assay: P450 inhibition, human liver microsomal CYP2D6; type: in vitro ADME
T4 construct: selected human liver microsomal cytochrome P450 isozymes (CYP1A2, CYP2C9, CYP2C19, CYP2D6, and CYP3A); from tissue; host or cells: human liver microsomes
T4 sequence (P10635 whole entry): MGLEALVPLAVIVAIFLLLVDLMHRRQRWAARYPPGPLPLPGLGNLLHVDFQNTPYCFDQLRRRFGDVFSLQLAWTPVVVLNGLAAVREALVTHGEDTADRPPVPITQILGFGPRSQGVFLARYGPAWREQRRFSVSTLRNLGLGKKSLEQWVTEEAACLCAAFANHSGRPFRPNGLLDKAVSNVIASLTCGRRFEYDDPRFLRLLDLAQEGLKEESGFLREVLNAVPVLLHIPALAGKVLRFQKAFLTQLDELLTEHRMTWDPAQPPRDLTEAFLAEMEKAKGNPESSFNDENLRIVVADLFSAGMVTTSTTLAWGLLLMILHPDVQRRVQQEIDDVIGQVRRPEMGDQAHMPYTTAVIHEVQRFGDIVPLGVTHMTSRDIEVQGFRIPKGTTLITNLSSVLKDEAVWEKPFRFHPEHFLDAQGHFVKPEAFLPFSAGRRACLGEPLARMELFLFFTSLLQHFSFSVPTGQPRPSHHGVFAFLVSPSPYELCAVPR

[7] = system: CYP3A; assay: P450 inhibition, human liver microsomal CYP3A; type: in vitro ADME; conditions: human liver microsomes, read-out: 3A %Inhibition
[8] = biological target: T5, human δ-opioid receptor (OPRD1) (Homo sapiens, UniProt P41143); conditions: versus EC50 of SNC80; normalized to naltrexone
T5 sequence (P41143 whole entry): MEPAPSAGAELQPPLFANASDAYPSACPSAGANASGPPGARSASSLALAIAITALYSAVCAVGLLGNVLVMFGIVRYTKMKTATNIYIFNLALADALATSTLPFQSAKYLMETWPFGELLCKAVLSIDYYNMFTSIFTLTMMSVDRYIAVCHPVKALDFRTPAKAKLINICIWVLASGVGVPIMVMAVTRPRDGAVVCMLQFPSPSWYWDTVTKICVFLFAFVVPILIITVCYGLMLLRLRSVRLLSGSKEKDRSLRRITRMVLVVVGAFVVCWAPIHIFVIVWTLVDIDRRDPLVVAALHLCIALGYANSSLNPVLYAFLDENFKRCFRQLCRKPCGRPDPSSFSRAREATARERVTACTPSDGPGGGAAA

[9] = biological target: CYP2C19 (Homo sapiens, UniProt P33261); assay: in vitro; conditions: microsomes
CYP2C19, sequence (P33261 whole entry): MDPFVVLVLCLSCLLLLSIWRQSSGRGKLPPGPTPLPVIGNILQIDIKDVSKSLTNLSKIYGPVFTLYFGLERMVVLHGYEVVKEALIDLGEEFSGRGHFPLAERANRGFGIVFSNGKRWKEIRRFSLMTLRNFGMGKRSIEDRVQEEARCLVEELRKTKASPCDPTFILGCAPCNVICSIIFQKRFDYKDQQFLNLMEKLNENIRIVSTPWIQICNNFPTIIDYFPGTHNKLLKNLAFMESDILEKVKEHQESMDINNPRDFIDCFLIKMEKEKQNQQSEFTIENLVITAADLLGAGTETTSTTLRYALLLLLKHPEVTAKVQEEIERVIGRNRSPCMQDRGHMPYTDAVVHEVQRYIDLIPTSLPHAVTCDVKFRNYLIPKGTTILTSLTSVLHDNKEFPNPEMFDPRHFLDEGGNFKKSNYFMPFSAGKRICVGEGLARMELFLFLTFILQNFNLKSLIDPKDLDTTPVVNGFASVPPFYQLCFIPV

[10] = in vitro; conditions: human, microsomes
[11] = in vitro; conditions: mouse, microsomes
[12] = biological target: T5, human δ-opioid receptor (OPRD1); assay: cell-based
[13] = biological target: T6, CYP1A2 (Homo sapiens, UniProt P05177); assay: P450 inhibition, human liver microsomal CYP1A2; conditions: microsomes
T6 sequence (P05177 1-516): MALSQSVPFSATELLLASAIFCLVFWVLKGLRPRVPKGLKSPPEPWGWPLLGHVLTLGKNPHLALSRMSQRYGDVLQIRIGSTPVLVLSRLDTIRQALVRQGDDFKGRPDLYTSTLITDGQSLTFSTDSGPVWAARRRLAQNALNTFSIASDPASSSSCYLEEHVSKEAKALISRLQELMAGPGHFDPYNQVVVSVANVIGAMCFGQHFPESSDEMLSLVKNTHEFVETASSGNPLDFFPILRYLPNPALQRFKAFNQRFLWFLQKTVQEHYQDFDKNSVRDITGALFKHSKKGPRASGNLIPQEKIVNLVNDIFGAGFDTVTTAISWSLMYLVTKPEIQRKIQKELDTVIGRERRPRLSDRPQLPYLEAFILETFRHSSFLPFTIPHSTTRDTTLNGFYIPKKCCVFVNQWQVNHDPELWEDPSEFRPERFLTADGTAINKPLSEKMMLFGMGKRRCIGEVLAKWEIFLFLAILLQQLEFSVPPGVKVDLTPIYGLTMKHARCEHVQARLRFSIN

[14] = biological target: CYP2C9 (Homo sapiens, UniProt P11712); assay: P450 inhibition, human liver microsomal CYP2C9; conditions: microsomes
CYP2C9, sequence (P11712 whole entry): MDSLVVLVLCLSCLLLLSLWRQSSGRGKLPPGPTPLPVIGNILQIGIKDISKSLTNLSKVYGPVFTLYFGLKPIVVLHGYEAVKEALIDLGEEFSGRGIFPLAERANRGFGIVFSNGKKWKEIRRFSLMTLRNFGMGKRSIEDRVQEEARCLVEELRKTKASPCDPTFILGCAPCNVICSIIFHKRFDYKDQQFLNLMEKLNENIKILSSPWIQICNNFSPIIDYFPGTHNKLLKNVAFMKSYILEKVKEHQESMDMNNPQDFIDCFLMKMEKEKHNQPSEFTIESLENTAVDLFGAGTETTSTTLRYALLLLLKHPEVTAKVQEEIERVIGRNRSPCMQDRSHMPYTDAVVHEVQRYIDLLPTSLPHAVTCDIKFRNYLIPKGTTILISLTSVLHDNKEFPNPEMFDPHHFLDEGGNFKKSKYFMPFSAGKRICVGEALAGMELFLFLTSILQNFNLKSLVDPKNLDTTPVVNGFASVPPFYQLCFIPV

[15] = Microsomal metabolic stability, human liver microsomes
[16] = Microsomal metabolic stability, mouse liver microsomes; conditions: for Remaining (NCF = 60 min): MLM 0.5, no co-factor (no NADPH); for Remaining (T = 60 min): MLM 0.5, with NADPH
[17] = biological target: T5, human δ-opioid receptor (OPRD1); assay: Forskolin-induced cAMP accumulation assay, DOR agonist mode
[18] = biological target: T7, human κ-opioid receptor (OPRK1) (Homo sapiens, UniProt P41145); assay: Forskolin-induced cAMP accumulation assay, KOR agonist mode
T7 sequence (P41145 whole entry): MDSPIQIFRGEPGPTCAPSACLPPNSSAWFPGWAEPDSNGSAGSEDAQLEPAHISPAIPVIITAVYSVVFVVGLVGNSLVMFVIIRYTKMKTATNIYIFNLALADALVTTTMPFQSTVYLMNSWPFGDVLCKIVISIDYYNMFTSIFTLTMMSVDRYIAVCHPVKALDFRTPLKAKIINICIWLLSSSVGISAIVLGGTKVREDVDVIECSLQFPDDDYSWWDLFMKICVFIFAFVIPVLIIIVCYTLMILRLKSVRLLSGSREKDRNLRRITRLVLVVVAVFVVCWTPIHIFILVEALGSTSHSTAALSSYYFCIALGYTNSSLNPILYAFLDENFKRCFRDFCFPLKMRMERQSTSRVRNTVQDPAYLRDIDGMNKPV

[19] = biological target: T7, human κ-opioid receptor (OPRK1); assay: Forskolin-induced cAMP accumulation assay, KOR antagonist mode; conditions: for KOR Antagonist %Imax ± SEM: versus EC90 of U50488H, normalized to nor-BNI
[20] = forskolin-induced cAMP accumulation assay

Row | Structure (SMILES) | Ki [3] | Ki [4] | fold lower affinity at DOR than at MOR [4] | Ki [5] | fold lower affinity at KOR than at MOR [5] | inhibition at 10 µM [7] | DOR Antagonist %Imax ± SEM [8] | inhibition at 10 µM [9] | IC50 [12] | inhibition at 10 µM [13] | inhibition at 10 µM [14] | Remaining (NCF = 60 min) [16] | Remaining (T = 60 min) [16] | EC50 [17] | EC50 [18] | IC50 [19] | KOR Antagonist %Imax ± SEM [19] | further results
1 | Oc1cccc(C23CCCC(C2)N(CC2CC2c2ccccc2)CC3)c1 (single isomer, unassigned; (-)) [(-)-3] | – | – | – | – | – | – | – | – | – | – | – | – | – | – | – | – | – | Ki [1]: 4 nM; mu-opioid antagonist activity Ke [2]: 0.3 nM
2 | Oc1cccc2c1O[C@H]1CN(C[C@H]3C[C@@H]3c3ccccc3)[C@H]3CCC[C@@]21C3 [(+)-17, (3S,6aR,11aR)-2-(((1S,2S)-2-Phenylcyclopropyl)methyl)-1,3,4,5,6,11a-hexahydro-2H-3,6a-methanobenzofuro[2,3-c]azocin-10-ol] | 11.9 ± 1.6 nM | 49.4 ± 5.1 nM | approximately 4 fold | 100 ± 10 nM | about 10 fold | 24.7% | 160.9 ± 4.0% | 46.6% | 487 ± 157 nM | 6.8% | 36.6% | 94.4% | 0.2% | > 10000 nM | > 10000 nM | 206 ± 63.2 nM | 106.1 ± 5.5% | 2D6 %Inhibition ([6]; 10 µM): 66.8%; inhibition at 10 µM ([6]; human, human liver microsomes, read-out: 2D6 %Inhibition): > 50%; CLint scaled [10]: 62 mL/min/kg; half-life [10]: 20.1 min; microsomal CLint [10]: 68.9 µL/min/mg; CLint scaled [11]: 801 mL/min/kg; half-life [11]: 6.9 min; microsomal CLint [11]: 202 µL/min/mg; Remaining (NCF = 60 min) ([15]; HLM 0.5, no co-factor (no NADPH)): 98.5%; Remaining (T = 60 min) ([15]; HLM 0.5, with NADPH): 13.0%; functional agonist activity at DOR [17, 20]: did not have functional agonist activity; functional agonist activity at KOR [18, 20]: did not have functional agonist activity
3 | Oc1cccc2c1O[C@H]1CN(CCc3ccccc3)[C@H]3CCC[C@@]21C3 [(-)-1, (3S,6aR,11aR)-2-Phenethyl-1,3,4,5,6,11a-hexahydro-2H-3,6a-methano-benzofuro[2,3-c]azocin-10-ol] | 1.11 ± 0.15 nM | 34.8 ± 4.4 nM | approximately 30 fold | 13 ± 1.2 nM | about 10 fold | – | 86.5 ± 6.4% | – | 409 ± 138 nM | – | – | – | – | > 10000 nM | > 10000 nM | 102 ± 65.8 nM | 109.3 ± 8.1% | –
4 | CC(=O)N1CCN(c2ccc(OCC3COC(Cn4ccnc4)(c4ccc(Cl)cc4Cl)O3)cc2)CC1 (centres unmarked) [Ketoconazole, reference compound] | – | – | – | – | – | 98.8% | – | – | – | – | – | – | – | – | – | – | – | –
5 | O=C1CC[C@@]2(O)[C@H]3Cc4ccc(O)c5c4[C@@]2(CCN3CC2CC2)[C@H]1O5 [Naltrexone] | – | – | – | – | – | – | – | 0% | – | – | 0% | 84.3% | 48.1% | – | – | – | – | Remaining (NCF = 60 min) ([15]; human, microsomes, 1 h): 99.8%; Remaining (T = 60 min) ([15]; human, microsomes, 1 h): 97.1%
6 | O=c1cc(-c2ccccc2)oc2c1ccc1ccccc12 [α-Naphthoflavone, reference compound] | – | – | – | – | – | – | – | – | – | 88.3% | – | – | – | – | – | – | – | –

Reference: article PMC9785231, “Synthesis and Pharmacological Evaluation of Enantiopure N-Substituted Ortho-c Oxide-Bridged 5-Phenylmorphans” (Molecules, 2022)
